Laboratory results: the supplement of paper PMC9663587

Columns and labels:
[1] = compound: CN(C)C(=O)c1cc2cnc(Nc3ccc(N4CCNCC4)cn3)nc2n1C1CCCC1 [LEE011/Ribociclib]; experiment: increase in dead-cell fraction, 72 h; higher = more death;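 note: breast cancer cell lines in 384-well plates, stained with Hoechst plus LIVE/DEAD far red dye and imaged, cells above an LDR intensity threshold counted dead, Hoechst-negative corpses included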
[2] = compound: CN(C)C/C=C/C(=O)Nc1ccc(C(=O)N2CCC[C@@H](Nc3ncc(Cl)c(-c4c[nH]c5ccccc45)n3)C2)cc1 [THZ531]; experiment: as above
[3] = compound: CN(C)C/C=C/C(=O)Nc1ccc(C(=O)Nc2cccc(Nc3ncc(Cl)c(-c4c[nH]c5ccccc45)n3)c2)cc1 [THZ1]; experiment: as above
[4] = compound: T1, CN1CC[C@H](c2c(O)cc(O)c3c(=O)cc(-c4ccccc4Cl)oc23)[C@H](O)C1 [Flavopiridol]; experiment: as above
[5] = compound: CCOc1cc2ncc(C#N)c(Nc3ccc(OCc4ccccn4)c(Cl)c3)c2cc1NC(=O)/C=C/CN(C)C [Neratinib/HKI272]; experiment: GR value, 72 h; higher = faster growth (1 = untreated, <0 = killing);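 note: breast cancer and non-malignant breast epithelial lines, nine half-log doses, viable cells counted by Hoechst and LIVE/DEAD dye imaging versus time-zero plates and DMSO controls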
[6] = compound: T1, Flavopiridol; experiment: as above

EVSAT
increase in dead-cell fraction ([1]; 0.001 µM): 0.0012 | increase in dead-cell fraction ([1]; 0.003162 µM): 0.0024 | increase in dead-cell fraction ([1]; 0.01 µM): 0.0001 | increase in dead-cell fraction ([1]; 0.03162 µM): 0.0046 | increase in dead-cell fraction ([1]; 0.1 µM): 0.0067 | increase in dead-cell fraction ([1]; 0.3162 µM): 0.0048 | increase in dead-cell fraction ([1]; 1 µM): 0.0025 | increase in dead-cell fraction ([1]; 3.162 µM): 0.0016 | increase in dead-cell fraction ([1]; 10 µM): 0.0146 | increase in dead-cell fraction ([2]; 0.0001 µM): 0.0033 | increase in dead-cell fraction ([2]; 0.0003162 µM): -0.0022 | increase in dead-cell fraction ([2]; 0.001 µM): -0.0014 | increase in dead-cell fraction ([2]; 0.003162 µM): -0.0011 | increase in dead-cell fraction ([2]; 0.01 µM): 0.0002 | increase in dead-cell fraction ([2]; 0.03162 µM): -0.0005 | increase in dead-cell fraction ([2]; 0.1 µM): 0.0333 | increase in dead-cell fraction ([2]; 0.3162 µM): 0.372 | increase in dead-cell fraction ([3]; 0.0001 µM): -0.0011 | increase in dead-cell fraction ([3]; 0.0003162 µM): 0.0011 | increase in dead-cell fraction ([3]; 0.001 µM): 0.0012 | increase in dead-cell fraction ([3]; 0.003162 µM): 0.0031 | increase in dead-cell fraction ([3]; 0.01 µM): 0.0078 | increase in dead-cell fraction ([3]; 0.03162 µM): 0.0292 | increase in dead-cell fraction ([3]; 0.1 µM): 0.181 | increase in dead-cell fraction ([3]; 0.3162 µM): 0.641 | increase in dead-cell fraction ([4]; 0.0001 µM): 0 | increase in dead-cell fraction ([4]; 0.0003162 µM): -0.0027 | increase in dead-cell fraction ([4]; 0.001 µM): -0.0029 | increase in dead-cell fraction ([4]; 0.003162 µM): 0.0039 | increase in dead-cell fraction ([4]; 0.01 µM): 0.0011 | increase in dead-cell fraction ([4]; 0.03162 µM): 0.0016 | increase in dead-cell fraction ([4]; 0.1 µM): 0.0006 | increase in dead-cell fraction ([4]; 0.3162 µM): 0.0111 | increase in dead-cell fraction ([4]; 1 µM): 0.85 | GR value ([5]; 0.0003162 µM): 0.99 GR | GR value ([5]; 0.001 µM): 1.02 GR | GR value ([5]; 0.003162 µM): 1.01 GR | GR value ([5]; 0.01 µM): 0.991 GR | GR value ([5]; 0.03162 µM): 0.978 GR | GR value ([5]; 0.1 µM): 0.909 GR | GR value ([5]; 0.3162 µM): 0.895 GR | GR value ([5]; 1 µM): 0.822 GR | GR value ([5]; 3.162 µM): 0.676 GR | GR value ([6]; 0.0001 µM): 1.01 GR | GR value ([6]; 0.0003162 µM): 1.06 GR | GR value ([6]; 0.001 µM): 1.02 GR | GR value ([6]; 0.003162 µM): 0.984 GR | GR value ([6]; 0.01 µM): 0.925 GR | GR value ([6]; 0.03162 µM): 0.97 GR | GR value ([6]; 0.1 µM): 0.917 GR | GR value ([6]; 0.3162 µM): 0.619 GR | GR value ([6]; 1 µM): -0.514 GR
